The source of these data is article PMC3009643 (BMC Neuroscience, 2010).

Data set [1] concerns neuro-2a mouse neuroblastoma cells. The following applies: cited from earlier work; for fold less potent than ATX in producing toxicity: neuro-2a mouse neuroblastoma cells.
The target of data set [2] is T1, rNav1.2 α-subunit (Rattus norvegicus, UniProt P04775).
T1 construct: host or cells: CHL 1610 (Chinese hamster lung)
The experiment in a line: cell-based. The following applies: for EC50: rNav1.2-CHL 1610 cells, SBFI, 37°C, read-out: EC50 (nM) (95% CI), sodium influx. It is filed as cell-based.

Data set [3] has as its target T2, rNav1.4 α-subunit (Rattus norvegicus, UniProt P15390).
T2 construct: host or cells: HEK 293
Description: SBFI sodium influx assay in rNav1.4-HEK 293 cells. As to conditions: for maximal response of sodium influx, area under the curve (AUC, fluorescence × time) (95%CI) / EC50: rNav1.4-HEK 293 cells; for EC50: SBFI, 37°C, read-out: EC50 (nM) (95% CI), sodium influx. It is filed as cell-based.

Data set [4] concerns CHL 1610 cells. The experiment in a line: SBFI sodium influx assay in wild type CHL 1610 parent cells. It is filed as cell-based, Chinese hamster. As to conditions: wild type CHL 1610 parent cell line.
The test system of data set [5] is HEK 293 cells. Description: SBFI sodium influx assay in wild type HEK 293 parent cells. As to conditions: wild type HEK 293 parent cell line. It counts as cell-based, human.
Data set [6] deals with rNav1.2-CHL 1610, rNav1.4-HEK 293 and rNav1.5-CHL 160 cells. It is filed as cell-based. As to conditions: 1 μM ATX for 24 h; preliminary experiments. The method, then: Supplementary file 1471-2202-11-154-S1.TIFF: Additional file 1 Lack of toxic effect of ATX in rNav1.2-CHL 1610, rNav1.4-HEK 293 and rNav1.5-CHL 160 cells. The cells were exposed to 1 μM ATX for 24 h and the medium was collected and subjected to LDH activity measurement as described by Koh and Choi (1987; Koh, JY, and Choi, DW. Quantitative determination of glutamate mediated cortical neuronal injury in cell culture by lactate dehydrogenase efflux assay. J Neurosci Methods 20:83-90). […] Click here for file

Data set [7] deals with T3, calcium-permeable DEAA mutant of rNav1.4 α-subunit (Rattus norvegicus, UniProt P15390, K1237A).
T3 construct: host or cells: HEK 293
Description: fluo-3 calcium influx assay in DEAA-HEK 293 cells. The following applies: for EC50: fluo-3, read-out: EC50, Ca2+ influx (95% CI). It is filed as cell-based.

The target in data set [8] is T4, rNav1.5 α-subunit (Rattus norvegicus, UniProt P15389).
T4 construct: host or cells: CHL 1610 (Chinese hamster lung)
The experiment in a line: SBFI sodium influx assay in rNav1.5-CHL 1610 cells. It counts as cell-based. As to conditions: for EC50: rNav1.5-CHL 1610 cells, SBFI, 37°C, read-out: EC50 (nM) (95% CI), sodium influx.

For data set [9], the system named is sodium channel neurotoxin site 2. The following applies: cited from earlier work.
For data set [10], the system named is neocortical neurons. As to conditions: cited from earlier work.

Where two headings read alike, the source gives them in different places.

T4 sequence (P15389 whole entry): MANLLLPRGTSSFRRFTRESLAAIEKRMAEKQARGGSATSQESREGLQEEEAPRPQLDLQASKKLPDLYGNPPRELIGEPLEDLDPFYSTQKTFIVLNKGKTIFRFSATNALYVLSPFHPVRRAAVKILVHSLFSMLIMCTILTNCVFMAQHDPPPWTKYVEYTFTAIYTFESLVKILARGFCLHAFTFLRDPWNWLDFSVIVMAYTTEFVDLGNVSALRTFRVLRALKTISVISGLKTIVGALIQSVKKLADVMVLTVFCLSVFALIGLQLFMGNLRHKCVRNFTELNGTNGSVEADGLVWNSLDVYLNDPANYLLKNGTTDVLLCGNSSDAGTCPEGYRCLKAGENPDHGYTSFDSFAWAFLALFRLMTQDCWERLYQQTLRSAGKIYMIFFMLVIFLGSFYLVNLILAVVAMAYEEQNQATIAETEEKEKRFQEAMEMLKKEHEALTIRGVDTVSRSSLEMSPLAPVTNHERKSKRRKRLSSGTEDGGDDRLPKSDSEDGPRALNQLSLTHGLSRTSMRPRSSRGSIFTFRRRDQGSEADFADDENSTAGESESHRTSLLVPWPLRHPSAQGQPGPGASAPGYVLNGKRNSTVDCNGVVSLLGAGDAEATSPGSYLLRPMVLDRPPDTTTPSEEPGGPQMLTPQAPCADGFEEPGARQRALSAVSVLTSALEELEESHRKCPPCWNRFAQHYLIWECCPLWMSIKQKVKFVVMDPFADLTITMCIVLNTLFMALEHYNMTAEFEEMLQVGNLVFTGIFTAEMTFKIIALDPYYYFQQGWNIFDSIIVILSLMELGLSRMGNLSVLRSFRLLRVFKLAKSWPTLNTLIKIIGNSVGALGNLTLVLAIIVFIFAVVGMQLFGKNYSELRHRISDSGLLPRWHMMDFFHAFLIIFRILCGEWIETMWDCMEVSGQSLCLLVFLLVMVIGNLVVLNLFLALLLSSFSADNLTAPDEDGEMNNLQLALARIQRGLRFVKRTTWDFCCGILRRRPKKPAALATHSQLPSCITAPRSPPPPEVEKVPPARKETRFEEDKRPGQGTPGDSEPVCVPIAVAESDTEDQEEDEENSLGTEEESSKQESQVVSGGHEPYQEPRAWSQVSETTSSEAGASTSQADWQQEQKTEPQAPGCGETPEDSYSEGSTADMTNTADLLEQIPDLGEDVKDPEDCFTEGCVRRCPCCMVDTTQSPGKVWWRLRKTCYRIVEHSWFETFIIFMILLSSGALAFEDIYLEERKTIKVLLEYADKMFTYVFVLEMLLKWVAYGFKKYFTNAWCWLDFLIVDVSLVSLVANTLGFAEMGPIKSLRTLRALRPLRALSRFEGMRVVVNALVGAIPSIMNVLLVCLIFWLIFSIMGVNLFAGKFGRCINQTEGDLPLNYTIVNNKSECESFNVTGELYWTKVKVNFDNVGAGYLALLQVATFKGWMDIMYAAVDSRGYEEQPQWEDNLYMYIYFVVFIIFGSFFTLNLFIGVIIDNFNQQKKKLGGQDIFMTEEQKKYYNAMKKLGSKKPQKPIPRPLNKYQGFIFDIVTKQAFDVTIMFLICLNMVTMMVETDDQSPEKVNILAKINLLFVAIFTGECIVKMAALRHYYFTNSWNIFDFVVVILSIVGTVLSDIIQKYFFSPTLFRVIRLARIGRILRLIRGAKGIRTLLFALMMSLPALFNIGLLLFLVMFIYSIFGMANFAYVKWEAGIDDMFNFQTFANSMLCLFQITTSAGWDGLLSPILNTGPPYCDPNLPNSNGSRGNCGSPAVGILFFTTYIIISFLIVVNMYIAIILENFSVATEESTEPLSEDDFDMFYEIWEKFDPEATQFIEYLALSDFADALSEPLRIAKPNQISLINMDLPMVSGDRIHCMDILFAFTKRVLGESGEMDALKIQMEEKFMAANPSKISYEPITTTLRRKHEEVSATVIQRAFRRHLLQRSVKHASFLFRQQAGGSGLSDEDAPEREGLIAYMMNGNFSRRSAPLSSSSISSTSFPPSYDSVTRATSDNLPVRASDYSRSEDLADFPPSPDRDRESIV
T1 sequence (P04775 whole entry): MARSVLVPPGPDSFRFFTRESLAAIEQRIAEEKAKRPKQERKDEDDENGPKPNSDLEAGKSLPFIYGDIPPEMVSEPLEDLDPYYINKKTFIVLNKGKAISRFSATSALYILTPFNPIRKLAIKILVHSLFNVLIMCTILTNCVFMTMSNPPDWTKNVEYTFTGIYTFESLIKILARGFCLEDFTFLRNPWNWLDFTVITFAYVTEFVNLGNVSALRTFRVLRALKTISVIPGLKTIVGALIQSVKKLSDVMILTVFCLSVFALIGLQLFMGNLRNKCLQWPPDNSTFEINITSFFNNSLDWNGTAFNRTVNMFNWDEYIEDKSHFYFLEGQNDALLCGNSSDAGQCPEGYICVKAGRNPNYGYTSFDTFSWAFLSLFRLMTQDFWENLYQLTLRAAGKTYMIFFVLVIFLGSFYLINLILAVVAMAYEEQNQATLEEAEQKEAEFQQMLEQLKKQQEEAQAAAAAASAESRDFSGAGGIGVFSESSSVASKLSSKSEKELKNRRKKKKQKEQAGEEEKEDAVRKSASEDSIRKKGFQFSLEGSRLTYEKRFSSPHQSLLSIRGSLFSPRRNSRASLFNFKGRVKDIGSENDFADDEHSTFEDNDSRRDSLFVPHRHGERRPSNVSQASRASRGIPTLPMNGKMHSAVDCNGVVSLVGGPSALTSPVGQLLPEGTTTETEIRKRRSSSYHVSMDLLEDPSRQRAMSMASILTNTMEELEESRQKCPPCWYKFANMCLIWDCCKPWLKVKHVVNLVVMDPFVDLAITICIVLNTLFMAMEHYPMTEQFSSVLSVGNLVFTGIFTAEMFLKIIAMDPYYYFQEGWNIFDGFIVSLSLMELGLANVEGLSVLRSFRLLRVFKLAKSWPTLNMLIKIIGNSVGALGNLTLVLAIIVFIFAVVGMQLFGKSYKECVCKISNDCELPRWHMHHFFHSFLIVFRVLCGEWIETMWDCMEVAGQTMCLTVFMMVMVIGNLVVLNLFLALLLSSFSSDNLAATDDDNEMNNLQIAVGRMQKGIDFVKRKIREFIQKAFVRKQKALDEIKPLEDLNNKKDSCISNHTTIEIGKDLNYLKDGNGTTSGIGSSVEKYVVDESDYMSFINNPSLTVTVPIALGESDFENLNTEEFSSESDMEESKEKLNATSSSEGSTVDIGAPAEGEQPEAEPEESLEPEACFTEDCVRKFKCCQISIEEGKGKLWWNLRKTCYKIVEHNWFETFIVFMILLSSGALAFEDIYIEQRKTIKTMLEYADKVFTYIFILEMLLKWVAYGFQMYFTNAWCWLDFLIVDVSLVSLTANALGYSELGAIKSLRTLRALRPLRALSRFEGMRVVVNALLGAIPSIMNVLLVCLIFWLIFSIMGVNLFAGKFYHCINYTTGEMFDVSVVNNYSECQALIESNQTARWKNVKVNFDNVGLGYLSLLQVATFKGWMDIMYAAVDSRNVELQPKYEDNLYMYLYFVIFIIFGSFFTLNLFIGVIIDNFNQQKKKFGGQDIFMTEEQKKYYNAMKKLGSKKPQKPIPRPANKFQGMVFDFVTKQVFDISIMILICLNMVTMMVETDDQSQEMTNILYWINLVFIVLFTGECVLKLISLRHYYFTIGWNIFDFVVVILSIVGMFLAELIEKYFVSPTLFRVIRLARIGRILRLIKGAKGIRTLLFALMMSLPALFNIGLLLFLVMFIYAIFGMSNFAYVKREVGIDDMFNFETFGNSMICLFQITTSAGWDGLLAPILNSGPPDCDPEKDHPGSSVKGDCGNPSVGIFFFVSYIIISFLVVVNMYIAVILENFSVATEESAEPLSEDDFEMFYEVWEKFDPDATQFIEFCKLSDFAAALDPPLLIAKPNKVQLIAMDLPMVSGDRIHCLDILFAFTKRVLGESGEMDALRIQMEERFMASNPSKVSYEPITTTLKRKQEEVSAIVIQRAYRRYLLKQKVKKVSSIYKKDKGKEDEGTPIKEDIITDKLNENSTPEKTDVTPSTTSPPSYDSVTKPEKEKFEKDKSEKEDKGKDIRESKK

With “8-demethyl-antillatoxin [reference compound]”, the “fold less potent than ATX in producing toxicity” value in data set [1] is reported as 244 fold.

Turning to `C=C1CC(=O)N[C@@H](C)C(=O)N(C)[C@@H](C(C)C)C(=O)NCC(=O)O[C@@H](/C(C)=C/C(C)=C/C(C)(C)C)[C@@H]1C` [ATX, antillatoxin], the EC50 came to 376 nM in data set [2], 165 nM in data set [3], 0.165 µM in [7] (DEAA-HEK 293 cells) and 205 nM in data set [8]. In addition, the “Efficacy (relative), sodium influx” value in data set [2] (rNav1.2, relative to ATX = 1) is 1; in data set [3] (rNav1.4, relative to ATX = 1), 1; in data set [8] (rNav1.5, relative to ATX = 1) it was 1. For the same molecule, the “maximal response of sodium influx, area under the curve (AUC, fluorescence × time) (95%CI)” value in [3] (ATX alone) was 439.4; in data set [3] (ATX in the presence of PbTx-2 (3 μM)), 537.9. The “fold more potent than in neuronal rNav1.2, sodium influx” value in [3] (skeletal muscle rNav1.4 versus rNav1.2) and in data set [8] (cardiac rNav1.5 versus rNav1.2) was 2 fold each time. Also, the “sodium influx (in words)” value in [4] and in data set [5] was “minimal sodium influx” in each case. For the same molecule, the “toxicity (LDH activity, in words)” value in data set [6] was “not toxic”.

As to `C=C1CC(=O)N[C@@H](C)C(=O)N(C)[C@@H](C(C)C)C(=O)NCC(=O)O[C@@H](/C(C)=C/CCC(C)(C)C)[C@@H]1C` [DH-ATX, 8-demethyl-8,9-dihydro-antillatoxin], the EC50 is 1130 nM in data set [2]; 644 nM in [3]; 0.68 µM in data set [7] (DEAA-HEK 293 cells); 595 nM in [8]; 1.2 µM in data set [1] (neuro-2a neuroblastoma cells, read-out: EC50, toxicity). The “Efficacy (relative), sodium influx” value in data set [2] (rNav1.2, relative to ATX = 1) amounted to 0.32; in [3] (rNav1.4, relative to ATX = 1), 0.33; in data set [8] (rNav1.5, relative to ATX = 1), 0.25. In addition, the “fold less potent than ATX, stimulation of sodium influx” value in data set [2] (stated for all three cell lines (rNav1.2-CHL 1610, rNav1.4-HEK 293, rNav1.5-CHL 1610)) was 2.5 - 4 fold. The “relative efficacy, Ca2+ influx” value in data set [7] (DEAA-HEK 293 cells, relative to ATX) worked out at 0.24. Besides, in data set [1], the “fold less potent than ATX in producing toxicity” value is 27 fold.

Consider `CCC[C@@H](C)[C@H](O)[C@H](C)[C@H]1OC(=O)[C@H]([C@@H](C)O)NC(=O)[C@H](C(C)C)OC(=O)[C@H](C)[C@H](O)[C@H]([C@@H](C)CC)NC(=O)[C@@]2(C)CSC(=N2)[C@@]2(C)CSC(=N2)c2csc(n2)C[C@H](OC)[C@@H]1C` [Hoiamide A, hoiamide A], for which the “fold more potent than veratridine, inhibition of [3H]BTX binding” value in [9] was 360 fold. In [9] (read-out: IC50, inhibition of [3H]BTX binding), the IC50 is 0.0928 µM.

Consider `NC1=N[C@H](O)[C@H]2[C@H]3O[C@]4(O)O[C@@H]([C@@H](O)[C@@]2(N1)[C@@H]4O)[C@]3(O)CO` [TTX, tetrodotoxin, reference compound], for which the IC50 in data set [3] (read-out: IC50, inhibition of ATX-induced sodium influx (95% CI)) stood at 0.0252 µM.

For `COc1ccc(C(=O)O[C@H]2CC[C@@]3(C)[C@@H]4CC[C@H]5[C@]6(O)C[C@H](O)[C@@]7(O)[C@@H](CN8C[C@@H](C)CC[C@H]8[C@@]7(C)O)[C@]6(O)C[C@@]53O[C@]24O)cc1OC` [Veratridine, veratridine, reference compound], in [10] (neocortical neurons), the “efficacy, sodium influx” value is reported as 0.67. For the same molecule, the “Efficacy (relative), sodium influx” value in [2] (rNav1.2, relative to ATX = 1) came out at 0; in data set [3] (rNav1.4, relative to ATX = 1), 0; in [8] (rNav1.5, relative to ATX = 1) it was 0. Besides, the “stimulation of Ca2+ influx (in words)” value in data set [7] (DEAA-HEK 293 cells) is listed as “without effect”.

Turning to “brevetoxin-2 [PbTx-2, reference compound]”, the “efficacy, sodium influx” value in [10] is recorded as 0.81. The “Efficacy (relative), sodium influx” value in data set [2], in data set [3] and in [8] was 0 each time. Also, the “stimulation of Ca2+ influx (in words)” value in [7] is “without effect”.
